Three molecules from patent publication US20240285576A1, “R-MDMA FOR TREATMENT OF PAIN” (Mind Medicine, Inc., priority 2023, published 2024) can be followed below.

Each structure is given as a SMILES string.

Test [1] deals with healthy volunteer population. Kind of test: Subjective effects in humans (psychedelic experience questionnaires, 5D-ASC, VAS). In kind it is in vivo. On the procedure: Doses of any of the compounds herein can be 20-300 mg. […] Compounds can be administered a single dose or multiple doses, up to three times per day. […] The compounds can be administered before, during, or after the individual has the sensation of pain.

Another test deals with Mice. Nature of the test: Acute pain: mouse tail flick. The conditions noted are these: for MPE, tail flick: model of acute pain (FIG. 3).

As to `CN[C@@H](C)Cc1ccc2c(c1)OCO2` [S-MDMA], in test [1] (125 mg of S-MDMA vs 125 mg of R-MDMA, postulated), the “subjective stimulation (VAS)” value is “greater subjective stimulation”.

Take `CN[C@H](C)Cc1ccc2c(c1)OCO2` [R-MDMA]: the “subjective experience on standard psychedelic experience questionnaires” value in test [1] (R-MDMA 75 mg, 125 mg, 175 mg or 225 mg, compared to racemic MDMA) is on record as “differentiated subjective experience”. The “measures of emotional breakthrough” value in test [1] (R-MDMA 75 mg, 125 mg, 175 mg or 225 mg, healthy volunteer population) was “dose dependent changes”. The “psychedelic-type effects (5D-ASC total OAV score)” value in test [1] (R-MDMA 300 mg compared with S-MDMA (125 mg), expected) is recorded as “greater psychedelic-type effects”. In addition, in the test with Mice (R-MDMA 17 and 30 mg/kg PO, 30, 60 and 90 minutes after administration, comparable to morphine (FIG. 2)), the “latency of the tail flick” value was “statistically significant increase”. Also, the “MPE, tail flick” value in the test on Mice (R-MDMA 17 and 30 mg/kg PO) worked out at 60%. For the same molecule, the “% MPE (percent of maximal possible effect), tail flick” value in the test on Mice (R-MDMA treated animals, 60 and 90 minutes post-treatment) is given as “significantly increased”.

With `CN1CC[C@]23c4c5ccc(O)c4O[C@H]2[C@@H](O)C=C[C@H]3[C@H]1C5` [morphine, reference compound], the “MPE, tail flick” value with Mice (morphine 4 mg/kg SC) turned out to be 80%.
